Data reported in patent publication US20260199484A1, “PROTAC DEGRADERS OF MLLT1 AND/OR MLLT3” (DARK BLUE THERAPEUTICS LTD, priority 2024, published 2026).

Columns and labels:
[1] = test system: MV4-11 cells; test: MV4-11 cellular proliferative assay, Assay Format B (CTG 2.0, 168 h); assay type: cell-based; details: Homo sapiens, Assay format B, 168 h, read-out: IC50 (MV4-11 cellular proliferative assay)
Description: MV4-11 cells at a confluency of ~50-80% was used for cell growth assay. 600 cells/well in a 384-well opaque cell culture plate (6007680; Perkin Elmer) were seeded in 40 μL of complete medium (IMDM+10% FBS+1× Penicillin-Streptomycin). Cells were incubated overnight at 37° C., 5% CO2. 10 mM DMSO stocks were prepared, cells were treated with 10 concentrations of test compounds starting from 1 uM or 100 nM, 3-fold dilution in 10 uL (5× concentration) of complete medium. Final DMSO concentration was 0.3%. Culture plates were centrifuged at 40×g, 30s. Cells were incubated with compounds for 168 h (7 days). After 7 days, 20 uL CTG 2.0 reagent (G9242; Promega) was added per well and luminescence reading was taken in Envision Xcite 2105 multimode plate reader. Data was analyzed in GraphPad Prism 10.0 and data was shown as % viability with respect to DMSO control and dose-response curves were generated using four parameter logistic regression. Assay quality was determined by z-factor calculation using positive and negative controls.

[2] = biological target: T1, MLLT1 (Homo sapiens, UniProt Q03111); test: MLLT1 degradation assay in MV4-11 cells (JESS, 24 h); assay type: cell-based; design: endogenous in cells; host or cells: MV4-11 (ATCC CRL-9591); details: vs DMSO control
T1 sequence (Q03111 1-559): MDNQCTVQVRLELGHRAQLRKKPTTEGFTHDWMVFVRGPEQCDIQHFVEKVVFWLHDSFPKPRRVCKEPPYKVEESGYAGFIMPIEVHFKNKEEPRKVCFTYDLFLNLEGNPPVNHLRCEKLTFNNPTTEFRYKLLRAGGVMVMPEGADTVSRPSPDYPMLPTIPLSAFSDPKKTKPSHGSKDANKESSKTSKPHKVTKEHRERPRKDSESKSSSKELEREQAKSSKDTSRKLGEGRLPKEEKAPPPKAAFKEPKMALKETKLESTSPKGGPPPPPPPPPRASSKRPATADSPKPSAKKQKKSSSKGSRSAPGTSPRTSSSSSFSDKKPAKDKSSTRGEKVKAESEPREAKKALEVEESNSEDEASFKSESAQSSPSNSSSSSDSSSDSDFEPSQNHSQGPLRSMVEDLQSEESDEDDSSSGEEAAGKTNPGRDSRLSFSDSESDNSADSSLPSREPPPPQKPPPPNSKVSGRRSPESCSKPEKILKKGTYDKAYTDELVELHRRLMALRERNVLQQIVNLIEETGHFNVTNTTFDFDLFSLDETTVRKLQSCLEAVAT
Outline: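 MV4-11 cells treated at 1000, 100 and 10 nM (0.1% DMSO) for 24 h at 37° C; lysates (4 ug protein) run on JESS capillary immunoassay with MLLT1 and GAPDH antibodies. Peak areas give % degradation versus DMSO, binned A (≥75%) to D (<25%).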

| SMILES | IC50 [1] [nM] | MLLT1% Degradation @ 0.01 μM [2] | MLLT1% Degradation @ 0.1 μM [2] | MLLT1% Degradation @ 1 μM [2] |
| --- | --- | --- | --- | --- |
| Cc1nn(CCCCCCCC#Cc2cccc3c2CN([C@@H]2CCC(=O)NC2=O)C3=O)c2cc(C(=O)Nc3cc4[nH]c([C@H]5CCCN5C)cc4cn3)c(F)cc12 (relative stereo) [Example 103, 1-(9-(2-((rel-R)-2,6-dioxopiperidin-3-yl)-1-oxoisoindolin-4-yl)non-8-yn-1-yl)-5-fluoro-3-methyl-N-(2-((R)-1-methylpyrrolidin-2-yl)-1H-pyrrolo[3,2-c]pyridin-6-yl)-1H-indazole-6-carboxamide] | < 100 | A (Category A: A≥75% degradation) | A (Category A: A≥75% degradation) | A (Category A: A≥75% degradation) |
| Cc1nn(CC2CCN(c3cccc4c3CN(C3CCC(=O)NC3=O)C4=O)CC2)c2cc(C(=O)Nc3cc4[nH]c([C@H]5CCCN5C)cc4cn3)ccc12 (stereo in doubt) [Example 107, 1-((1-(2-((rel-S)-2,6-dioxopiperidin-3-yl)-1-oxoisoindolin-4-yl)piperidin-4-yl)methyl)-3-methyl-N-(2-((R)-1-methylpyrrolidin-2-yl)-1H-pyrrolo[3,2-c]pyridin-6-yl)-1H-indazole-6-carboxamide] | < 100 | A (Category A: A≥75% degradation) | A (Category A: A≥75% degradation) | A (Category A: A≥75% degradation) |
| Cc1nn(CCCCCCCC#Cc2ccc3c(c2)n(C)c(=O)n3C2CCC(=O)NC2=O)c2cc(C(=O)Nc3cc4[nH]c([C@H]5CCCN5C)cc4cn3)ccc12 (stereo partly drawn) [Example 39, 1-(9-(1-(2,6-dioxopiperidin-3-yl)-3-methyl-2-oxo-2,3-dihydro-1H-benzo[d]imidazol-5-yl)non-8-yn-1-yl)-3-methyl-N-(2-((R)-1-methylpyrrolidin-2-yl)-1H-pyrrolo[3,2-c]pyridin-6-yl)-1H-indazole-6-carboxamide] | < 100 | A (Category A: A≥75% degradation) | A (Category A: A≥75% degradation) | A (Category A: A≥75% degradation) |
| Cc1nn(CCCCCCCC#Cc2ccc(F)c3c2CN(C2CCC(=O)NC2=O)C3=O)c2cc(C(=O)Nc3cc4[nH]c([C@H]5CCCN5C)cc4cn3)ccc12 (stereo partly drawn) [Example 52, 1-(9-(2-(2,6-dioxopiperidin-3-yl)-7-fluoro-1-oxoisoindolin-4-yl)non-8-yn-1-yl)-3-methyl-N-(2-((R)-1-methylpyrrolidin-2-yl)-1H-pyrrolo[3,2-c]pyridin-6-yl)-1H-indazole-6-carboxamide] | < 100 | A (Category A: A≥75% degradation) | A (Category A: A≥75% degradation) | A (Category A: A≥75% degradation) |
| Cc1nn(CCCCCCCC#Cc2cccc3c2CN(C2CCC(=O)NC2=O)C3=O)c2cc(C(=O)Nc3cc4[nH]c([C@H]5CCCN5C)c(Cl)c4cn3)ccc12 (stereo partly drawn) [Example 53, N-(3-chloro-2-((R)-1-methylpyrrolidin-2-yl)-1H-pyrrolo[3,2-c]pyridin-6-yl)-1-(9-(2-(2,6-dioxopiperidin-3-yl)-1-oxoisoindolin-4-yl)non-8-yn-1-yl)-3-methyl-1H-indazole-6-carboxamide] | < 100 | A (Category A: A≥75% degradation) | A (Category A: A≥75% degradation) | A (Category A: A≥75% degradation) |
| Cc1nn(CCCCCCCCC#Cc2cccc3c2CN(C2CCC(=O)NC2=O)C3=O)c2cc(C(=O)Nc3cc4[nH]c([C@H]5CCCN5C)cc4cn3)ccc12 (stereo partly drawn) [Example 54, 1-(10-(2-(2,6-dioxopiperidin-3-yl)-1-oxoisoindolin-4-yl)dec-9-yn-1-yl)-3-methyl-N-(2-((R)-1-methylpyrrolidin-2-yl)-1H-pyrrolo[3,2-c]pyridin-6-yl)-1H-indazole-6-carboxamide] | < 100 | A (Category A: A≥75% degradation) | A (Category A: A≥75% degradation) | A (Category A: A≥75% degradation) |
